Laboratory results reported in publication PMC4269296 (Nucleosides, nucleotides & nucleic acids, 2015).

How the values were obtained:
[1] = test system: HIV infected T4 lymphocytes; details: read-out: EC50 against HIV infected T4 lymphocytes; cited from earlier work
[2] = test system: Cell-Associated Virus (X4); test: Cell-associated transmission assay; assay type: cell-based, HIV-1; details: for Cell-Associated Virus CTC EC50: cell-associated transmission assay (X4); for EC50: Human immunodeficiency virus 1, read-out: Cell-Associated Virus CTC EC50
[3] = test system: R5 (BaL) HIV-1; test: Single-round; assay type: cell-based; details: Human immunodeficiency virus 1, BAL, MAGI, read-out: Cell-Free Virus R5 EC50
[4] = test system: X4 (IIIB) HIV-1; test: Single-round; assay type: cell-based; details: Human immunodeficiency virus 1, IIIB, MAGI, read-out: Cell-Free Virus X4 EC50
[5] = in vitro; details: human
[6] = test system: X4 and R5 cell free virus; assay type: cell-based, HIV-1; details: for EC50: Human immunodeficiency virus 1, read-out: EC50 against X4 and R5 cell free virus

Row | SMILES | EC50 [1] [µM] | Cell-Associated Virus CTC EC50 [2] [µM] | EC50 [3] [µM] | EC50 [4] [µM] | EC50 [2] [µM] | EC50 at 2 h [5] [µM] | EC50 [6] [µM] | fold higher inhibition against X4 virus than the R5 virus strain ([6]; ratio of R5 and X4 EC50)
1 | CCSCCCCCCCCCCCC(=O)O [12-Thioethyldodecanoic acid] | 9.4 | – | – | – | – | – | – | –
2 | N=C(N)NCCC[C@H](NC(=O)[C@H](CCCNC(=N)N)NC(=O)[C@H](CCCNC(=N)N)NC(=O)[C@H](CCCNC(=N)N)NC(=O)[C@H](CCCNC(=N)N)NC(=O)[C@H](CCCNC(=N)N)NC(=O)[C@H](CCCNC(=N)N)NC(=O)CCCCCCCCCCCCC(=O)OC[C@@H]1O[C@H](n2cc(F)c(N)nc2=O)CS1)C(=O)O [Compound 15, 1-[(−)-2′,3′-dideoxy-5-fluoro-3′-thiacytidine]tetradecan-1,14-dioate conjugate of PolyArg] | – | >30 | – | – | – | – | – | –
3 | Nc1ccn([C@@H]2CS[C@H](CO)O2)c(=O)n1 [3TC (2), (−)-2′,3′-Dideoxy-3′-thiacytidine] | – | – | 2.6 | 7.5 | 18.4 | > 100 | 2.6 to 7.5 | –
4 | Nc1nc(=O)n([C@@H]2CS[C@H](CO)O2)cc1F [FTC (3), (−) 2′,3′–Dideoxy-5-fluoro-3′-thiacytidine] | – | – | – | – | 21.9 | > 100 | 0.18 to 0.48 | –
5 | N=C(N)NCCC[C@H](NC(=O)[C@H](CCCNC(=N)N)NC(=O)[C@H](CCCNC(=N)N)NC(=O)[C@H](CCCNC(=N)N)NC(=O)[C@H](CCCNC(=N)N)NC(=O)[C@H](CCCNC(=N)N)NC(=O)[C@H](CCCNC(=N)N)NC(=O)CCCCCCCCCCCCC(=O)OC[C@@H]1O[C@H](n2ccc(N)nc2=O)CS1)C(=O)O [Compound 14, 1-[(−)-2′,3′-Dideoxy-3′-thiacytidine]tetradecan-1,14-dioate conjugate of PolyArg] | – | >30 | – | – | – | – | – | approximately 2 fold
6 | Cc1cn([C@H]2C[C@H](F)[C@@H](CO)O2)c(=O)[nH]c1=O [FLT (1), 3′-Fluoro-2′,3′-deoxythymidine] | – | – | 0.1 | 0.2 | > 100 | > 100 | 0.1 to 0.2 | –
